Data reported in patent US10584159B2, “Renilla based biosensors for monitoring biomolecule localization and trafficking in cells” (The Royal Institution for the Advancement of …, priority 2014, dated 2020).
Starred links: 1 amine or outer side, 2 acyl side, 3 side chain; linkers in the order of their positions; H or OH if unused. Positions of bridges follow the written chain, without caps; N, C: chain ends. Non-standard residues stand in square brackets, D forms with d. Residues, ends and D or L forms follow the SMILES beside them. No end group written: not given here. *: point of attachment. Leu(3R-OH,Nα-propionyl) = CCC(=O)N[C@H](C(=O)*)[C@H](O)C(C)C; X1 = CC(C)[C@@H](O[*:3])[C@H](N[*:1])C(=O)[*:2]; NMeT = CN[C@H](C(=O)O)[C@@H](C)O; dPhLac = O=C(O)[C@H](O)Cc1ccccc1; NMeA = CN[C@@H](C)C(=O)O; NMeDha = C=C(NC)C(=O)O

Assays:
Gq = assay: RlucII-tagged Gq translocation to rGFP markers (BRET) with TPαR; format: cell-based, human; conditions: 100 nM Ubo-Qic 20 min
AT1R [1] = biological target: T1, AT1R (Homo sapiens, UniProt P30556); assay: AT1R endocytosis BRET at plasma membrane (AT1R-RlucII/lyn-rGFP); format: cell-based; set-up: signal peptide-Flag-human AT1R (spFlag-AT1R); signal peptide (N); expressed in transfected cells; host or cells: HEK293SL (HEK293 for the screen)
T1 sequence (P30556 with tags, fused parts or gaps): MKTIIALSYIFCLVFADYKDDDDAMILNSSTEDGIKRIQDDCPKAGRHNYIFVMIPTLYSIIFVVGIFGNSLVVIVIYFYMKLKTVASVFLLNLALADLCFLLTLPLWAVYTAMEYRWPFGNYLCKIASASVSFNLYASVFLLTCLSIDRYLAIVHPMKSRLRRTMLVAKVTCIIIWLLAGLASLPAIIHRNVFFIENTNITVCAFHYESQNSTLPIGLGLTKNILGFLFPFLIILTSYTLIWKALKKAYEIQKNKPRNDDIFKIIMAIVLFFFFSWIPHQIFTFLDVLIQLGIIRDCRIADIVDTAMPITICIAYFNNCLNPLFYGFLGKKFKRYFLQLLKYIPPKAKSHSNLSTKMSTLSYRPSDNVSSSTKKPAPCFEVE
Experimental: BRET measurements for FIGS. 1B to 9D, 25D to 25F. The following day of transfection, cells were detached and replated onto poly-ornithine coated white 96-well plate at a density of 25,000 cells per well. The next day, cells were washed once with pre-warmed Tyrode's buffer (140 mM NaCl, 2.7 mM KCl, 1 mM CaCl2, 12 mM NaHCO3, 5.6 mM D-glucose, 0.5 mM MgCl2, 0.37 mM NaH2PO4, 25 mM HEPES, pH 7.4), and then stimulated with either various concentrations of ligands in Tyrode's buffer for the indicated time, or single concentration of ligands for various times at 37° C. For recycling experiment, after stimulating the cells with the ligands for 30 min at 37° C., they were washed either three times with ice-cold Tyrode's buffer or once with Tyrode's buffer/three times with acid (50 mM sodium citrate, pH 4.0)/two times with Tyrode's buffer. All the washing steps were performed on ice. […] The cell-permeable substrate, coelenterazine 400a was added at a final concentration of 5 μM in Tyrode's buffer 3-4 min before BRET measurements. […] The BRET signal was determined by calculating the ratio of the light intensity emitted by the GFP10 or rGFP over the light intensity emitted by the RlucII. All the BRET measurements were performed in triplicate at 37° C.
Data Analysis. Estimation of the t1/2 and the EC50 values for ligand-mediated endocytosis were calculated using the GraphPad® Prism curve fitting program The curves presented throughout this study, representing the best fits, and were generated using this GraphPad® Prism program as well.

AT1R [2] = biological target: T1, AT1R; assay: AT1R sorting to rab11 vesicles BRET (AT1R-RlucII/rGFP-rab11); format: cell-based; set-up: signal peptide-Flag-human AT1R (spFlag-AT1R); signal peptide (N); expressed in transfected cells; host or cells: HEK293SL (HEK293 for the screen)
Experimental: BRET measurements for FIGS. 1B to 9D, 25D to 25F. The following day of transfection, cells were detached and replated onto poly-ornithine coated white 96-well plate at a density of 25,000 cells per well. The next day, cells were washed once with pre-warmed Tyrode's buffer (140 mM NaCl, 2.7 mM KCl, 1 mM CaCl2, 12 mM NaHCO3, 5.6 mM D-glucose, 0.5 mM MgCl2, 0.37 mM NaH2PO4, 25 mM HEPES, pH 7.4), and then stimulated with either various concentrations of ligands in Tyrode's buffer for the indicated time, or single concentration of ligands for various times at 37° C. For recycling experiment, after stimulating the cells with the ligands for 30 min at 37° C., they were washed either three times with ice-cold Tyrode's buffer or once with Tyrode's buffer/three times with acid (50 mM sodium citrate, pH 4.0)/two times with Tyrode's buffer. All the washing steps were performed on ice. Cells were then further incubated with Tyrode's buffer at 37° C. in a water bath for 45 min. […] Measurements were performed by using Synergy2 (BioTek®) microplate reader with a filter set of 410±80 nm and 515±30 nm for detecting the RlucII Renilla luciferase (donor) and GFP10 or rGFP (acceptor) light emissions, respectively. The BRET signal was determined by calculating the ratio of the light intensity emitted by the GFP10 or rGFP over the light intensity emitted by the RlucII. […]

AT1R [3] = biological target: T2, AT1R (Homo sapiens, UniProt P30556); assay: β-arrestin2 targeting to endosomes BRET (AT1R/βarr2-RlucII/rGFP-endofinFYVE); format: cell-based; conditions: 40 min
T2 construct: expressed in transfected cells; host or cells: HEK293SL
T2 sequence (P30556 1-359): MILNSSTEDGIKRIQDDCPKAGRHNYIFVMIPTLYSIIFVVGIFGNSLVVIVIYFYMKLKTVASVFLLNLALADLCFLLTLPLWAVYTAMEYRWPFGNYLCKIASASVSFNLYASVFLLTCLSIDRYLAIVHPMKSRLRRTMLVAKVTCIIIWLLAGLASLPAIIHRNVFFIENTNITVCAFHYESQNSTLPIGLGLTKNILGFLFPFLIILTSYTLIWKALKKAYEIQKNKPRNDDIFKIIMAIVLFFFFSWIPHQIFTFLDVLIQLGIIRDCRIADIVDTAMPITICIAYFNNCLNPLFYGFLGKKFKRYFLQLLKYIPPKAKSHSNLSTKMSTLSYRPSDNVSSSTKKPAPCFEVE
Experimental: BRET measurements for FIGS. 1B to 9D, 25D to 25F. The following day of transfection, cells were detached and replated onto poly-ornithine coated white 96-well plate at a density of 25,000 cells per well. The next day, cells were washed once with pre-warmed Tyrode's buffer (140 mM NaCl, 2.7 mM KCl, 1 mM CaCl2, 12 mM NaHCO3, 5.6 mM D-glucose, 0.5 mM MgCl2, 0.37 mM NaH2PO4, 25 mM HEPES, pH 7.4), and then stimulated with either various concentrations of ligands in Tyrode's buffer for the indicated time, or single concentration of ligands for various times at 37° C. For recycling experiment, after stimulating the cells with the ligands for 30 min at 37° C., they were washed either three times with ice-cold Tyrode's buffer or once with Tyrode's buffer/three times with acid (50 mM sodium citrate, pH 4.0)/two times with Tyrode's buffer. All the washing steps were performed on ice. Cells were then further incubated with Tyrode's buffer at 37° C. in a water bath for 45 min. The cell-permeable substrate, coelenterazine 400a was added at a final concentration of 5 μM in Tyrode's buffer 3-4 min before BRET measurements. Measurements were performed by using Synergy2 (BioTek®) microplate reader with a filter set of 410±80 nm and 515±30 nm for detecting the RlucII Renilla luciferase (donor) and GFP10 or rGFP (acceptor) light emissions, respectively. The BRET signal was determined by calculating the ratio of the light intensity emitted by the GFP10 or rGFP over the light intensity emitted by the RlucII. All the BRET measurements were performed in triplicate at 37° C.

Row | Molecule | U46619 response of Gq translocation to rGFP-CAAX Hras, rGFP-CAAX CCIL and Golgi markers after Gq inhibitor (Gq) | effect on AngII-dependent AT1R internalization (AT1R [1]; 100 nM Ubo, 30 min pre-incubation) | effect on AngII-bound AT1R in Rab11 vesicles (AT1R [2]; 100 nM Ubo, 100 nM AngII 30 min) | β-arrestin2 trafficking to endosomes with receptors, compared to AngII (AT1R [3]) | EC50 (AT1R [1]; FIG. 6B, 30 min, read-out: potency to promote AT1R internalization) [µM] | BRET signal relative to AngII (AT1R [2]; 100 nM SI, 1 μM DVG)
1 | C=C1C(=O)N[C@@H](C)C(=O)N(C)[C@@H](C)C(=O)N[C@@H]([C@H](OC(=O)[C@@H](NC(=O)CC)[C@H](O)C(C)C)C(C)C)C(=O)N(C)[C@@H]([C@@H](C)OC)C(=O)O[C@H](C(C)C)[C@H](NC(C)=O)C(=O)O[C@H](Cc2ccccc2)C(=O)N1C [Ubo-QIC] (Ac-[X1][dPhLac][NMeDha]A[NMeA][X1](Leu(3R-OH,Nα-propionyl))[NMeT](Me); ester 1-C) | No response is observed | did not prevent | increased AngII-bound AT1R in Rab 4 and Rab11 vesicles | – | – | –
2 | DRVYVHPG [DVG, [Asp^1,Val^5, Gly^8]-AngII] | – | – | – | weakly promoted | 0.075 | overall higher BRET signals
